Source: patent US20250186450A1, “COMBINATION THERAPY COMPRISING DGK INHIBITORS and PD-1/PD-L1 INHIBITORS” (Incyte Corporation, priority 2023, published 2025)
“Also recorded” adds a separate entry of the source.

What was measured:
DGKζ = DGKζ (Homo sapiens (Human), UniProt Q13574); assay: In vitro DGKζ inhibition assay (ADP-Glo); assay type: biochemical; details: 0.4 nM DGKζ, 30 μM ATP, 20 μM DLG
Description: The DGKα and DGKζ biochemical reactions were performed using His-tagged human recombinant enzymes (Signal Chem, DGKα, #D21-10BH; DGKζ, #D30-10H)) and DLG (Dilauroyl-sn-glycerol) lipid substrate (Signal Chem, #D430-59). ADP-Glo assay was performed using ADP-Glo™ kinase Assay kit (Promega, #V9104). The reactions were carried out in assay buffer containing 40 mM Tris, pH 7.5, 0.1% CHAPS, 0.1% Prionex, 40 mM NaCl, 5 mM MgCl2, 1 mM CaCl2, and 1 mM DTT. DGKα reactions contained 0.1 nM DGKα, 50 μM ATP, and 20 μM DLG. And DGKζ reactions contained 0.4 nM DGKζ, 30 μM ATP, and 20 μM DLG.
For compound inhibition studies, 40 nL test compound in DMSO was added to wells of white polystyrene plates in 384-well (Greiner, #784075) or 1536-well format (Greiner, #782075). Compounds were added with top concentration of 2 mM with 11 point, 3-fold dilution series. Enzyme solution (contains 2×DGK enzyme concentration in 1× assay buffer) was added to the plate in 2 μL/well volume, followed by 2 μL/well of substrate solution (contains 2× concentration of ATP and DLG substrate in 1× assay buffer). Plates were then centrifuged for 1 min at 1200 RPM and sealed or lidded. For 4 μL reaction volume, test compounds were therefore diluted 100× to final top concentration of 20 μM. After 90 minute incubation, reactions were quenched by addition of 2 μL/well Promega ADP-Glo Reagent, followed by centrifugation and lidding. After 60 min incubation, 2 μL/well Promega Kinase Detection Reagent was added, plates centrifuged, and incubated for 30 min. Plates were then read using Luminescence method on BMG PHERAstar FSX plate reader. Percent inhibition was calculated and IC50s were determined using 4-parameter fit in Genedata Screener. Labcyte Echo acoustic dispenser was used for compound addition, and Formulatrix Tempest liquid handler was used for all reagent dispenses.

[1] = test system: MC38 syngeneic tumor model; assay: MC38 syngeneic tumor model, DGK inhibitor plus anti-PD-1 (RMP1-14); assay type: in vivo, C57Bl/6 mice
Description: The in vivo effect of combining Compound 1 plus anti-PD-1 (RMP1-14, Bio X Cell) was assessed in the MC38 (CRL-1642, ATCC, Manassas, VA) syngeneic tumor model (see FIG. 3) in 6 to 8 weeks old C57Bl/6 mice (Jackson laboratories). Compound 1 was suspended in 5% N,N-dimethylacetamide (DMAC)+50 mM Citrate buffer in 0.5% methyl cellulose for oral administration and RMP1-14 was suspended in saline for intraperitoneal administration. Briefly, the left flank of the mice was shaved the day prior to subcutaneous inoculation with 2×10^6 MC38 cells suspended in PBS. On day 7, tumor dimensions were measured by Vernier calipers, and volume estimated by the formula Volume=[L (long dimension)×W^2 (short dimension)]/2. Mice were randomized into 6 groups of 10 mice of approximate mean volume (˜160 mm^3). Tumors were measured 3 times per week for the duration of the study. Starting day 7, mice were dosed with (i) vehicle; (ii) 250 μg/mouse of RMP1-14; (iii) 10 mg/kg of Compound 1; (iv) 1 mg/kg of Compound 1; (v) 10 mg/kg of Compound 1 and 250 μg/mouse of RMP1-14; or (vi) 1 mg/kg of Compound 1 and 250 μg/mouse of RMP1-14. Compound 1 was administered orally once daily (QD) for 12 days, while RMP1-14 was dosed every 5 days (for a total of 3 doses).
The in vivo effect of combining Compound 2 plus anti-PD-1 (RMP1-14, Bio X Cell) was assessed in the MC38 (CRL-1642, ATCC, Manassas, VA) syngeneic tumor model in 6 to 8 weeks old C57Bl/6 mice (Jackson laboratories). Compound 2 was suspended in 5% N,N-dimethylacetamide (DMAC)+50 mM Citrate buffer in 0.5% methyl cellulose for oral administration and RMP1-14 was suspended in saline for intraperitoneal administration. Briefly, the left flank of the mice was shaved the day prior to subcutaneous inoculation with 2×10^6 MC38 cells suspended in PBS. On day 7, tumor dimensions were measured by Vernier calipers, and volume estimated by the formula Volume=[L (long dimension)×W^2 (short dimension)]/2. Mice were randomized into 6 groups of 10 mice of approximate mean volume (˜130 mm^3). Tumors were measured 3 times per week for the duration of the study. Starting day 7, mice were dosed with (i) vehicle; (ii) 250 μg/mouse of RMP1-14 (Anti-PD-1); (iii) 0.5 mg/kg of Compound 2 QD; (iv) 0.5 mg/kg of Compound 2 […] and 250 μg/mouse of RMP1-14; (v) 0.5 mg/kg of Compound 2 Q2D; (vi) 0.5 mg/kg of Compound 2 […] and 250 μg/mouse of RMP1-14; (vii) 1.5 mg/kg of Compound 2 QD; (viii) 1.5 mg/kg of Compound 2 QD and 250 μg/mouse of RMP1-14 (ix) 1.5 mg/kg of Compound 2 Q2D; (x) 1.5 mg/kg of Compound 2 Q2D and 250 μg/mouse of RMP1-14; (xi) 1.5 mg/kg of Compound 2 Q3D; or (xii) 1.5 mg/kg of Compound 2 Q3D and 250 μg/mouse of RMP1-14.
The in vivo effect of combining 2-(4-((2S,5R)-4-(bis(4-fluorophenyl)methyl)-2,5-dimethylpiperazin-1-yl)-1H-[1,2,4]triazolo[3,4-b]purin-1-yl)-N,N-dimethylethane-1-amine (i.e., Compound 3) plus anti-PD-1 (RMP1-14, Bio X Cell) was assessed in the MC38 (CRL-1642, ATCC, Manassas, VA) syngeneic tumor model in 6 to 8 weeks old C57Bl/6 mice (Jackson laboratories). Compound 3 was suspended in 5% N,N-dimethylacetamide (DMAC)+50 mM Citrate buffer in 0.5% methyl cellulose for oral administration and RMP1-14 was suspended in saline for intraperitoneal administration. Briefly, the left flank of the mice was shaved the day prior to subcutaneous inoculation with 2×10^6 MC38 cells suspended in PBS. On day 7, tumor dimensions were measured by Vernier calipers, and volume estimated by the formula Volume=[L (long dimension)×W^2 (short dimension)]/2. Mice were randomized into 6 groups of 10 mice of approximate mean volume (˜200 mm^3). Tumors were measured 3 times per week for the duration of the study. Starting day 7, mice were dosed with (i) vehicle; (ii) 250 μg/mouse of RMP1-14 (Anti-PD-1); (iii) 10 mg/kg of Compound 3 QD; (iv) 10 mg/kg of Compound 3 QD and 250 μg/mouse of RMP1-14; (v) 30 mg/kg of Compound 3 QD; or (vi) 30 mg/kg of Compound 3 QD and 250 μg/mouse of RMP1-14.

Sequence of DGKζ (Q13574 whole entry): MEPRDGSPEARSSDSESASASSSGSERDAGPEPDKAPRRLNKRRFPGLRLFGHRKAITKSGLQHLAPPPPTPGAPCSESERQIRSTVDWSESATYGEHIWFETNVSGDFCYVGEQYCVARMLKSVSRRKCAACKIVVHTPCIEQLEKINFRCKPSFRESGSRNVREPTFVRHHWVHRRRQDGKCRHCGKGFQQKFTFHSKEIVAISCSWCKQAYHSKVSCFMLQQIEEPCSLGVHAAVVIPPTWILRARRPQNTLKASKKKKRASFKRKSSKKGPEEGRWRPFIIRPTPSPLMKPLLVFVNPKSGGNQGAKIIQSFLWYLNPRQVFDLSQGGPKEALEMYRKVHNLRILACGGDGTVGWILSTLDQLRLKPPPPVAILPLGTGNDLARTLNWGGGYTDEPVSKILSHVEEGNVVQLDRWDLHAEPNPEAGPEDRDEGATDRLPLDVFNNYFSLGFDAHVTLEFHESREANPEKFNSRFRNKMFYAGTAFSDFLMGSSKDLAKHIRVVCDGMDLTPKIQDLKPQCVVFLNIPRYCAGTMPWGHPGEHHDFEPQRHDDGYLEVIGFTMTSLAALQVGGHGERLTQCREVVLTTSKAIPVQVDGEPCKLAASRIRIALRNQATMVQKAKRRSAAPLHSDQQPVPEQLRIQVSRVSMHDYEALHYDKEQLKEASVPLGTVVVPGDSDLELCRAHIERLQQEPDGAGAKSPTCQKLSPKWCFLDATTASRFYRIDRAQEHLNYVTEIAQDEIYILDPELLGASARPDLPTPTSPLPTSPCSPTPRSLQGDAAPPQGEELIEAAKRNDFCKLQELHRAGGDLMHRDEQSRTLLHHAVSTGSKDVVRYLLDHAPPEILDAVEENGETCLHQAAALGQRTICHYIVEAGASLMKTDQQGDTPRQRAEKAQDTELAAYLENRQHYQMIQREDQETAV

| IC50 (DGKζ) [nM] | SMILES | combination effect on tumor growth delay (Bliss Independence analysis) ([1]; 10 mg/kg or 1 mg/kg Compound 1 QD for 12 days with 250 μg RMP1-14, vs respective controls, FIG. 3) | TGI, combined with anti-PD-1 mAb, vs anti-PD-1 mAb control group ([1]; 1.5 mg/kg Compound 2 and 250 μg/mouse RMP1-14, FIG. 7) | TGI, combined with anti-PD-1 mAb, vs vehicle control group ([1]; 0.5 and 1.5 mg/kg Compound 2, independent of dose schedule, and 250 μg/mouse RMP1-14, FIG. 7) | TGI, combination groups vs respective single-arm Compound 2 control group ([1]; 0.5 or 1.5 mg/kg Compound 2 and 250 μg/mouse RMP1-14) | TGI vs vehicle and anti-PD-1 mAb control groups ([1]; Compound 2 alone, 0.5 or 1.5 mg/kg, FIG. 7) |
| --- | --- | --- | --- | --- | --- | --- |
| ≤ 20 | C[C@@H]1CN(c2nc3nncn3c3c2nnn3C[C@H]2CCCO2)[C@@H](C)CN1C(c1ccc(F)cc1)c1ccc(F)cc1 [Example 1, 4-((2S,5R)-4-(Bis(4-fluorophenyl)methyl)-2,5-dimethylpiperazin-1-yl)-1-(((R)-tetrahydrofuran-2-yl)methyl)-1H-[1,2,3]triazolo[4,5-e][1,2,4]triazolo[4,3-a]pyrimidine] | additive effect in tumor growth delay |  |  |  |  |
| ≤ 20 | Cc1nc2c(N3C[C@@H](C)N(C(c4ccc(C(F)(F)F)cc4)C4CC(F)(F)C4)C[C@@H]3C)nc3nncn3c2n1C[C@@H]1CCCO1 (single isomer, unassigned) [Example 2] |  | significant TGI | statistically significant; also recorded: significant TGI | statistically significant | None of the single treatment arm groups dosed with Compound 2 0.5 or 1.5 mg/kg provided statistically significant TGI |
